Assay results: patent publication US8236844B2, “Histidine derivatives” (Nippon Zoki Pharmaceutical Co., Ltd., priority 2006, dated 2012)

Tests used:
[1] = system: SART stressed mouse; assay: Test for analgesic effect (1): SART stressed mouse, modified Randall-Selitto tail pressure method; format: in vivo, mouse (ddY strain)
Method: Loading of SART (Specific Alternation of Rhythm in Temperature) stress or repetitive cold stress was conducted in accordance with a method of Kita, et al. (Nippon Yakurigaku Zasshi, Vol. 71, pages 195 to 210, 1975). In a constant-temperature vessel for breeding, a breeding environment temperature for male mice of ddY strain was alternately changed at 4° C. and 24° C. every one hour from 10 a.m. until 5 p.m. and kept at 4° C. from 5 p.m. to 10 a.m. of the next morning. Breeding was conducted for 5 days where water and feed were freely taken by the mice so as to load a repetitive cold stress and, after that, the mice were subjected to the test. Before and after 30 minutes from administration of the test substance, analgesic threshold value was measured by a modified Randall-Selitto method (Tail pressure method; Nippon Yakurigaku Zasshi, Vol. 72, pages 573 to 584, 1976). Thus, Using a Randall-Selitto analgesic effect measuring device where a pressing piece was modified for mouse tail, a pressure stimulation was applied at the rate of 16 g/second to the site which was 1.5 cm to the front end from tail root of the mouse and pressurized weight (g) showing an escaping or squeaking reaction was measured and adopted as a pain threshold value. […] A value (analgesic coefficient) where the pain threshold of the test substance administration group was divided by the pain threshold of the SART control group was calculated and the analgesic effect of the test substance was confirmed. Thus, when the test substance had no effect at all, said value was 1.0 and, as the effect became stronger, the value of the analgesic coefficient increased as 1.1, 1.2 and 1.3. Significant difference between the two groups was determined by a statistic processing of the pain threshold values and the analgesic coefficient was calculated as a mean value of the pain threshold values.
As to the test animals, male mice of ddY strain of four weeks age (one group comprised ten mice) were used. The compound of the present invention as a test substance was administered at a dose of 25 ng or 50 ng per mouse into the lateral ventricle whereupon its analgesic effect was measured.
Further, when the Compound 1 of the present invention was intraperitoneally administered (100 μg/kg), the pain threshold value in the SART control group was […] while, in the test substance administration group, it was 97.8 g (analgesic coefficient: 1.24) whereby a significant improving effect for hyperalgesia was noted.

[2] = system: mice; assay: Test for analgesic effect (4): acetic acid writhing test; format: in vivo, mouse (ddY strain); details: writhing numbers during 10 minutes
Method: The compounds of the present invention were orally administered to mice and a test for an analgesic effect was carried out by means of an acetic acid writhing test. As to the test animals, male mice of ddY strain of four weeks age were subjected to a preliminary breeding and they were used where one group comprised ten mice. Each of the compound of the present invention as a test substance was orally administered (10 mg/kg, 100 mg/kg) in a single dose while, to a control group, distilled water (water for injection) was administered similarly. After 25 minutes from the administration of the test substance, a 0.7% acetic acid/physiological saline was intraperitoneally administered at the dose of 10 mL/kg. From 5 minutes thereafter, writhing numbers during 10 minutes were counted and a suppressive rate for each mouse was calculated according to the following formula. Suppressive Rate(%)=[(Mean writhing numbers of the control group)−(Writhing numbers of each mouse)]÷[Mean writhing numbers of the control group]×100

[3] = system: Chung model rat; assay: Test for analgesic effect (2)/(3): Chung model rat, von Frey allodynia measurement; format: in vivo, rat (Wistar strain); details: for 50% reaction threshold value, Test substance administration group, Before admin.: baseline before intraperitoneal 400 μg/kg; for 50% reaction threshold value, Test substance administration group, After admin. for 30 minutes: intraperitoneal 400 μg/kg single dose, * P<0.05 Dunnett
Method: A test for analgesic effect was conducted using a Chung model rat which is a neuropathic pain model. As to the test animal, male rats of Wistar strain of nine weeks age were used and model rats were prepared in accordance with the method of Kim and Chung (Pain, vol. 50, pages 355 to 363, 1992). Thus, under anesthetization with pentobarbital (40 mg/kg, intraperitoneal administration), rat L5 spinal nerve was exposed and L5 dorsal root ganglion periphery side was strongly ligated using 5-0 silk yarn. The animals were placed in a transparent acrylate cage whose bottom was made of wire net, a 50% reaction threshold value was calculated by an up-down method using a von Frey filament (manufactured by North Coast Medical Inc.) according to the methods of Chaplan, et al. (J. Neurosci. Method, vol. 53, pages 55 to 63, 1994) and by Lee, et al. (J. Neurophysiol., vol. 81, pages 2226 to 2233, 1999) and measurement of allodynia was conducted. Before injury of spinal nerve, the 50% reaction threshold value was measured twice and the animals where the threshold value was outside the standard were excluded from the operation for spinal nerve injury. […] After 30 minutes from the administration of the test substance, allodynia was measured to calculate a 50% reaction threshold value. With regard to a significance test, Paired t-test was conducted for comparison between before and after the nerve injury and Dunnett's multiple comparison test was used for comparison among multiple groups of the nerve injury control group and the test substance administration group. […] After 30 minutes from administration of the test substance, measurement of allodynia was conducted to calculate the 50% reaction threshold value.

[4] = system: rats; assay: Formalin pain test for rats, second phase; format: in vivo, rat; details: oral administration of 100 mg/kg
[5] = system: rats; assay: Hyperalgesia in osteoarthritis model induced by monoiodoacetic acid into joints of rats; format: in vivo, rat; details: oral administration of 1 mg/kg
[6] = system: mice; assay: Single dose toxicity test by intraperitoneal administration to mice; format: in vivo, mouse (ddY strain); details: intraperitoneal 250, 500 and 1,000 mg/kg
Method: A single dose toxicity test by intraperitoneal administration of the compounds of the present invention to mice was carried out. Male mice of ddY strain of four weeks age were made into groups of five mice so as to make mean body weight in each group nearly the same. The Compound 1 of the present invention as a test substance was intraperitoneally administered at the doses of 250 mg/kg, 500 mg/kg and 1,000 mg/kg.

[7] = system: SART stressed mouse; assay: Test for analgesic effect (1): SART stressed mouse, modified Randall-Selitto tail pressure method; format: in vivo, mouse (ddY strain); details: oral administration, peak after 30 minutes
[8] = 30 minutes after administration
[9] = 25 ng per mouse into the lateral ventricle, 30 minutes after administration, pain threshold of test group / SART control group
[10] = 50 ng per mouse into the lateral ventricle, 30 minutes after administration, pain threshold of test group / SART control group

| Structure (SMILES) | Suppressive Rate ([2]; oral 100 mg/kg single dose) [%] | Suppressive Rate ([2]; oral 10 mg/kg single dose) [%] | 50% reaction threshold value, Test substance administration group, Before admin. [3] [g] | 50% reaction threshold value, Test substance administration group, After admin. for 30 minutes [3, 8] | Analgesic coefficient [1, 9] | further results |
| --- | --- | --- | --- | --- | --- | --- |
| NCCC(=O)N[C@@H](Cc1cnc[nH]1)C(=O)O [carnosine, β-ananyl-L-histidine, reference compound] |  |  |  |  |  | analgesic action (in words) ([1]; administration into the lateral ventricle): no significant analgesic action |
| CCn1cncc1C[C@H](NC(=O)C=C(C)C)C(=O)O [Compound 9, N(α)-3-methylcrotonoyl-N(π)-ethyl-L-histidine] | 38.0 |  |  |  |  |  |
| CC(C)=CC(=O)N[C@@H](Cc1cncn1C)C(=O)O [Compound 5, N(α)-3-methylcrotonoyl-N(π)-methyl-L-histidine] |  | 17.8 |  |  |  |  |
| C=C(C)C(=O)N[C@@H](Cc1cncn1C)C(=O)O [Compound 30, N(α)-methacryl-N(π)-methyl-L-histidine] |  |  | 2.63 ± 0.23 | 4.30 ± 0.46* g |  |  |
| CC=C(C)C(=O)N[C@@H](Cc1cncn1CC)C(=O)O [Compound 11, N(α)-2-methyl-2-butenoyl-N(π)-ethyl-L-histidine] |  | 36.1 |  |  |  |  |
| CCn1cncc1C[C@H](NC(=O)C=Cc1ccccc1)C(=O)O [Compound 10, N(α)-3-phenylpropenoyl-N(π)-ethyl-L-histidine] |  | 27.7 |  |  | 1.14 |  |
| CC=CC(=O)N[C@@H](Cc1cncn1C)C(=O)O [Compound 3, N(α)-crotonoyl-N(π)-methyl-L-histidine] |  |  |  |  | 1.23 |  |
| CC=C(C)C(=O)N[C@@H](Cc1cncn1C)C(=O)O [Compound 7, N(α)-2-methyl-2-butenoyl-N(π)-methyl-L-histidine] | 36.1 |  | 2.71 ± 0.24 | 9.88 ± 1.59* g | 1.31 |  |
| C=CC(=O)N[C@@H](Cc1cncn1CC)C(=O)O [Compound 2, N(α)-acryloyl-N(π)-ethyl-L-histidine] | 27.6 |  | 2.69 ± 0.39 | 5.98 ± 0.52* g |  | Analgesic coefficient [1, 10]: 1.18 |
| C=CC(=O)N[C@@H](Cc1cncn1C)C(=O)O [Compound 1, N(α)-acryloyl-N(π)-methyl-L-histidine] | 53.8 | 33.1 |  |  | 1.33 | Analgesic coefficient ([1]; intraperitoneal 100 μg/kg): 1.24; pain threshold value ([1]; intraperitoneal 100 μg/kg, test substance administration group): 97.8 g; 50% reaction threshold value ([3]; intraperitoneal 100 μg/kg single dose, 30 minutes after administration): 9.60 g; anti-allodynia action (in words) ([3]; oral administration 10 mg/kg, peak after 30 minutes): significant anti-allodynia action; ED50 value determined from the improving rate at the peak of the action ([3]; oral administration, peak after 30 minutes): 2.4 mg/kg; analgesic action against pain reaction in the second phase (in words) [4]: significant analgesic action; analgesic effect on hyperalgesia (in words) [5]: significant analgesic effect; changes in the body weight compared with the control group [6]: no significant difference; abnormal observation during the observation period ([6]; 14 days): no abnormal observation was noted; death ([6]; 14 days): no death case was noted; autopsied organs and tissues observed by naked eye ([6]; after 14 days): no abnormal case was found at all; analgesic action (in words) ([7]; 3 and 10 mg/kg): significant analgesic action; ED50 value determined from the improving rate at peak of action [7]: 2.7 mg/kg |
| C=CC(=O)N[C@@H](Cc1cncn1C(C)C)C(=O)O [Compound 13, N(α)-acryloyl-N(π)-isopropyl-L-histidine] |  |  |  |  |  | Analgesic coefficient [1, 10]: 1.31 |
| CC=CC(=O)N[C@@H](Cc1cncn1CC)C(=O)O [Compound 4, N(α)-crotonoyl-N(π)-ethyl-L-histidine] |  | 32.9 |  |  |  |  |
| Cc1ccc(C=CC(=O)N[C@@H](Cc2cncn2C)C(=O)O)cc1 [Compound 16, N(α)-3-(4-methylphenyl)acryloyl-N(π)-methyl-L-histidine] | 30.3 |  |  |  |  |  |
| Cn1cncc1C[C@H](NC(=O)C=Cc1ccccc1)C(=O)O [Compound 6, N(α)-3-phenylpropenoyl-N(π)-methyl-L-histidine] | 23.5 |  | 2.69 ± 0.33 | 6.43 ± 1.52* g | 1.17 |  |
| C=CC(=O)N[C@@H](Cc1cncn1Cc1ccccc1)C(=O)O [Compound 27, N(α)-acryloyl-N(π)-benzyl-L-histidine] |  | 37.9 | 2.58 ± 0.26 | 7.32 ± 1.32* g |  |  |
